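1) Cells in 96-well plates. 2) Compound, 48 h, 5 concentrations. 3) Linear interpolation between surrounding doses. 4) Unreached endpoint = highest concentration. TGI: concentration producing complete growth inhibition.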
Columns and labels:
Assay in all cases: NCI tumour cell line growth inhibition, 48 h
OVCAR-3 ovarian = test system: OVCAR-3 ovarian
UO-31 renal = test system: UO-31 renal
HCT-116 colon = test system: HCT-116 colon
SK-MEL-28 melanoma = test system: SK-MEL-28 melanoma
SF-539 CNS = test system: SF-539 CNS
NCI-H226 lung = test system: NCI-H226 lung
DMS 273 small cell lung = test system: DMS 273 small cell lung
RXF 393 renal = test system: RXF 393 renal
CCRF-CEM leukemia = test system: CCRF-CEM leukemia
HL-60(TB) leukemia = test system: HL-60(TB) leukemia
LOX IMVI melanoma = test system: LOX IMVI melanoma
IGROV1 ovarian = test system: IGROV1 ovarian
EKVX NSCLC = test system: EKVX NSCLC
OVCAR-8 ovarian = test system: OVCAR-8 ovarian
HCC-2998 colon = test system: HCC-2998 colon
UACC-257 melanoma = test system: UACC-257 melanoma
RPMI-8226 leukemia = test system: RPMI-8226 leukemia
HOP-18 NSCLC = test system: HOP-18 NSCLC
TK-10 renal = test system: TK-10 renal
SK-OV-3 ovarian = test system: SK-OV-3 ovarian
786-0 renal = test system: 786-0 renal
SN12C renal = test system: SN12C renal
U251 CNS = test system: U251 CNS
HT29 colon = test system: HT29 colon
NCI-H460 lung = test system: NCI-H460 lung
XF 498 CNS = test system: XF 498 CNS
SW-620 colon = test system: SW-620 colon
SNB-19 CNS = test system: SNB-19 CNS
DLD-1 colon = test system: DLD-1 colon
SF-268 CNS = test system: SF-268 CNS
NCI-H23 lung = test system: NCI-H23 lung
ACHN renal = test system: ACHN renal
MALME-3M melanoma = test system: MALME-3M melanoma
SK-MEL-2 melanoma = test system: SK-MEL-2 melanoma
HCT-15 colon = test system: HCT-15 colon
RXF-631 renal = test system: RXF-631 renal
HOP-92 NSCLC = test system: HOP-92 NSCLC
UACC-62 melanoma = test system: UACC-62 melanoma
SNB-78 CNS = test system: SNB-78 CNS
SNB-75 CNS = test system: SNB-75 CNS
M19-MEL melanoma = test system: M19-MEL melanoma
HOP-62 NSCLC = test system: HOP-62 NSCLC
COLO 205 colon = test system: COLO 205 colon
LXFL 529 NSCLC = test system: LXFL 529 NSCLC
KM20L2 colon = test system: KM20L2 colon
OVCAR-5 ovarian = test system: OVCAR-5 ovarian
MOLT-4 leukemia = test system: MOLT-4 leukemia
SF-295 CNS = test system: SF-295 CNS
A549 NSCLC = test system: A549 NSCLC
MCF7 breast = test system: MCF7 breast
SN12K1 renal = test system: SN12K1 renal
OVCAR-4 ovarian = test system: OVCAR-4 ovarian
NCI-H522 lung = test system: NCI-H522 lung
A498 renal = test system: A498 renal
NCI/ADR-RES ovarian = test system: NCI/ADR-RES ovarian
KM12 colon = test system: KM12 colon
SK-MEL-5 melanoma = test system: SK-MEL-5 melanoma
CAKI-1 renal = test system: CAKI-1 renal
K-562 leukemia = test system: K-562 leukemia

Compound: Cc1cc2c(C)n(Cc3ccc(Cl)cc3Cl)nc2c(C(=O)O)c1C
- TGI (OVCAR-3 ovarian): > 100 µM
- TGI (UO-31 renal): > 100 µM
- TGI (HCT-116 colon): > 100 µM
- TGI (SK-MEL-28 melanoma): > 100 µM
- TGI (SF-539 CNS): > 100 µM
- TGI (NCI-H226 lung): > 100 µM
- TGI (DMS 273 small cell lung): > 100 µM
- TGI (RXF 393 renal): > 100 µM
- TGI (CCRF-CEM leukemia): > 100 µM
- TGI (HL-60(TB) leukemia): > 100 µM
- TGI (LOX IMVI melanoma): > 100 µM
- TGI (IGROV1 ovarian): > 100 µM
- TGI (EKVX NSCLC): > 100 µM
- TGI (OVCAR-8 ovarian): > 100 µM
- TGI (HCC-2998 colon): > 100 µM
- TGI (UACC-257 melanoma): > 100 µM
- TGI (RPMI-8226 leukemia): > 100 µM
- TGI (HOP-18 NSCLC): > 100 µM
- TGI (TK-10 renal): > 100 µM
- TGI (SK-OV-3 ovarian): > 100 µM
- TGI (786-0 renal): > 100 µM
- TGI (SN12C renal): > 100 µM
- TGI (U251 CNS): > 100 µM
- TGI (HT29 colon): > 100 µM
- TGI (NCI-H460 lung): > 100 µM
- TGI (XF 498 CNS): > 100 µM
- TGI (SW-620 colon): > 100 µM
- TGI (SNB-19 CNS): > 100 µM
- TGI (DLD-1 colon): > 100 µM
- TGI (SF-268 CNS): > 100 µM
- TGI (NCI-H23 lung): > 100 µM
- TGI (ACHN renal): > 100 µM
- TGI (MALME-3M melanoma): > 100 µM
- TGI (SK-MEL-2 melanoma): > 100 µM
- TGI (HCT-15 colon): > 100 µM
- TGI (RXF-631 renal): > 100 µM
- TGI (HOP-92 NSCLC): > 100 µM
- TGI (UACC-62 melanoma): > 100 µM
- TGI (SNB-78 CNS): > 100 µM
- TGI (SNB-75 CNS): > 100 µM
- TGI (M19-MEL melanoma): > 100 µM
- TGI (HOP-62 NSCLC): > 100 µM
- TGI (COLO 205 colon): > 100 µM
- TGI (LXFL 529 NSCLC): > 100 µM
- TGI (KM20L2 colon): > 100 µM
- TGI (OVCAR-5 ovarian): > 100 µM
- TGI (MOLT-4 leukemia): > 100 µM
- TGI (SF-295 CNS): > 100 µM
- TGI (A549 NSCLC): > 100 µM

Compound: O=C(CCN1CCOCC1)C(=Cc1ccccc1)C(=O)CCN1CCOCC1
- TGI (MCF7 breast): 13.4 µM
- TGI (OVCAR-3 ovarian): 14.4 µM
- TGI (SN12K1 renal): 5.68 µM
- TGI (UO-31 renal): 27.6 µM
- TGI (HCT-116 colon): 5.5 µM
- TGI (SK-MEL-28 melanoma): 5.64 µM
- TGI (OVCAR-4 ovarian): 19.9 µM
- TGI (SF-539 CNS): 10 µM
- TGI (NCI-H226 lung): 29.4 µM
- TGI (DMS 273 small cell lung): 26 µM
- TGI (RXF 393 renal): 3.14 µM
- TGI (CCRF-CEM leukemia): 7.84 µM
- TGI (HL-60(TB) leukemia): 3.52 µM
- TGI (LOX IMVI melanoma): 4.29 µM
- TGI (NCI-H522 lung): 2.85 µM
- TGI (IGROV1 ovarian): 20.3 µM
- TGI (EKVX NSCLC): 5.59 µM
- TGI (OVCAR-8 ovarian): 9.88 µM
- TGI (HCC-2998 colon): 26.9 µM
- TGI (A498 renal): 31.4 µM
- TGI (UACC-257 melanoma): 3.5 µM
- TGI (RPMI-8226 leukemia): 4.14 µM
- TGI (HOP-18 NSCLC): 30.6 µM
- TGI (SK-OV-3 ovarian): 31.1 µM
- TGI (SN12C renal): 7.45 µM
- TGI (U251 CNS): 28.4 µM
- TGI (NCI/ADR-RES ovarian): 13.9 µM
- TGI (HT29 colon): 8.35 µM
- TGI (NCI-H460 lung): 28.3 µM
- TGI (KM12 colon): 13 µM
- TGI (XF 498 CNS): 12.8 µM
- TGI (SW-620 colon): 4.29 µM
- TGI (SK-MEL-5 melanoma): 18.2 µM
- TGI (SNB-19 CNS): 28.3 µM
- TGI (DLD-1 colon): 3.84 µM
- TGI (SF-268 CNS): 15.1 µM
- TGI (CAKI-1 renal): 13.5 µM
- TGI (NCI-H23 lung): 7.92 µM
- TGI (MALME-3M melanoma): 4.64 µM
- TGI (SK-MEL-2 melanoma): 22.6 µM
- TGI (HCT-15 colon): 4.74 µM
- TGI (HOP-92 NSCLC): 4.06 µM
- TGI (UACC-62 melanoma): 6.19 µM
- TGI (SNB-78 CNS): 8.5 µM
- TGI (SNB-75 CNS): 29.7 µM
- TGI (M19-MEL melanoma): 7.64 µM
- TGI (HOP-62 NSCLC): 37.5 µM
- TGI (COLO 205 colon): 6.97 µM
- TGI (K-562 leukemia): 2.15 µM
- TGI (KM20L2 colon): 25 µM
- TGI (OVCAR-5 ovarian): 33.6 µM
- TGI (MOLT-4 leukemia): 3.09 µM
- TGI (SF-295 CNS): 29.1 µM
- TGI (A549 NSCLC): 35.8 µM

From PubChem BioAssay (NCI)
